According to patent US20080039410A1, “Inositol 1,4,5-Trisphosphate Receptor Mutants and Uses Thereof” (priority 2004, published 2008):
Several values for one entry are separate records, joined by “and”; a condition that tells them apart may be missing. Equal entries are not always repeated. Entries after “also recorded” stand apart in the source; their conditions may differ.

Experiments:
S2− InsP3R-1 [1] = test: Potentiation of CCh-induced Ca2+ release after PKA activation (forskolin), S2− InsP3R-1 constructs in DT-40 3ko cells; type: cell-based, rat; details: for effect of forskolin treatment on CCh-induced [Ca^2+]i peak: threshold CCh; for Ca^2+ release after PKA activation: S2 − InsP3R-1 constructs, Table 2
Method: DT-40 cells lacking all three InsP3 receptor subtypes DT-40 3ko were transfected using electroporation, 350 V and 950 μF. 2×10^7 cells were co-transfected with 25 μg of the InsP3R cDNA, 25 μg of the muscarinic type 3 (M3) receptor, and 4 μg of the red fluorescent protein plasmid pHcRed1-N1. Cells were incubated with DNA in 500 μL of Optimem media on ice for 10 minutes. The cell/DNA mixture was electroporated, incubated on ice for 30 minutes, brought up to 5 ml with Optimem and placed in a 5% C02 incubator at 39° C. for 5 hours. The cells were then centrifuged and resuspended in 12 ml of complete RPMI media. Transfection efficiency was typically ˜20%. Experiments were performed within 32 hours of transfection.
Transfected DT-40 3ko cells were washed once in a HEPES-buffered physiological saline solution (HEPES-PSS) containing (in mM) 5.5 glucose, 137 NaCl, 0.56 MgCl2, 4.7 KCl, 1 Na2HPO4, 10 HEPES (pH 7.4), 1.2 CaCl2 and 1% w/v Bovine Serum Albumin. Cells were then resuspended in BSA HEPES-PSS with 1 μM Fura-2 (AM), placed on a 15 mm glass coverslip in a low volume perfusion chamber (Warner Instruments) and allowed to adhere for 30 minutes at room temperature. Cells were perfused continually for 10 minutes with HEPES-PSS before experimentation to allow Fura-2 de-esterification. A field of cells for each experiment was chosen that contained a wide range of transfection efficiency based upon the intensity of red fluorescence emitted when excited at 560 nm. [Ca^2+]i imaging was performed essentially as previously described using an inverted epifluorescence Nikon microscope with a 40× oil immersion objective lens (numerical aperture, 1.3). Cells were excited alternately with light at 340 and 380 nm (±10 mn bandpass filters, Chroma) using a monochrometer (TILL Photonics). Fluorescence images were captured and digitized with a digital camera driven by TILL Photonics software. Images were captured every 2 seconds with an exposure of 35 ms and no binning. 340/380 ratio images were calculated online and stored immediately to hard disk.
The effects of treatment were determined by normalizing the peak change in fluorescence ratio by stimulation following forskolin or 8-Br cGMP exposure to that of stimulation in control HEPES-PSS. Thus, pooled data represents a normalized fold increase over control for the treated trial. Two tailed heteroscedastic t-tests with P values<0.05 were considered to have statistical significance.
Similar experimental paradigms were employed to assess the effect of PKA-induced phosphorylation on a homogeneous population of S2^− InsP3R-1.
The effects of treatment were determined by normalizing the peak change in fluorescence ratio by stimulation following forskolin or 8-Br-cGMP exposure to that of stimulation in control HEPES-PSS. Thus, pooled data represent a normalized fold increase over control for the treated trial. In all cases where statistical significance is indicated, two-tailed heteroscedastic t tests were performed. P values<0.05 were considered to indicate statistical significance and are denoted by an asterisk in the figures.
The enhanced apparent sensitivity of individual phosphomimetic mutants was essentially equal and intermediate between the sensitivity of the S2−WT and S2−EE mutations. […] To address this possibility directly, experiments were performed evaluating the effects of activating endogenous PKA in cells expressing S2−SE or S2−ES to mimic prior phosphorylation of an individual site. […] To test this, experiments were performed to determine the phosphorylation state of the various mutants after raising cAMP levels. These experiments were performed in HEK-293 cells because of the high transfection efficiency and low endogenous levels of InsP3R-1 (47, 99). […]

S2− InsP3R-1 [2] = test: Phosphorylation of Ser-1755 after forskolin in transfected HEK-293 cells (immunoprecipitation, Western blot); type: cell-based, rat; details: 20 μM forskolin 10 min, α-phospho-Ser-1755 blot
Method: HEK-293 cells were plated onto 25-cm^2 culture flasks and allowed to grow to near-confluency. Cells were transfected with 5 μg of each S2− InsP3R-1 DNA construct by using the LipofectAMINE reagent (Invitrogen) as per the manufacturer's instructions. The following day, batches of cells were treated in the presence or absence of 20 μM forskolin for 10 min, aspirated from flasks, lysed, and immunoprecipitated with a polyclonal α-InsP3R-1 antibody that recognizes amino acids 2731-2749 of InsP3R-1. Immunoprecipitates were separated on 5% SDS gels transferred to nitrocellulose and then probed with either the α-InsP3R-1 antibody or a polyclonal antibody that recognizes the phosphorylated state of Ser-1755 (39) (α-phospho-Ser-1755), kindly provided by Dr. S. Snyder. Blots that were probed with a-phospho-Ser-1755were stripped and reprobed with the α-InsP3R-1 antisera to confirm the presence and relative quantity of the InsP3R-1.
The enhanced apparent sensitivity of individual phosphomimetic mutants was essentially equal and intermediate between the sensitivity of the S2−WT and S2−EE mutations. […] To address this possibility directly, experiments were performed evaluating the effects of activating endogenous PKA in cells expressing S2−SE or S2−ES to mimic prior phosphorylation of an individual site. […] To test this, experiments were performed to determine the phosphorylation state of the various mutants after raising cAMP levels. These experiments were performed in HEK-293 cells because of the high transfection efficiency and low endogenous levels of InsP3R-1 (47, 99). […] Following incubation of the lysates with α-InsP3R-1 antibody, the immune complexes were captured and separated on SDS gels, and the phosphorylation status of Ser-1755 was determined by Western blotting with an antibody that specifically recognizes this phosphorylated residue in InsP3R-1 (39).

## G1690A: InsP3R-1 S2− variant with glycine to alanine substitution at position 1690 (nucleotide binding site mutant)
S2− InsP3R-1 [1]; 20 μM forskolin
  effect of forskolin treatment on CCh-induced [Ca^2+]i peak: strikingly absent; also recorded: fails to potentiate
S2− InsP3R-1 [2]
  phosphorylation of Ser-1755 after forskolin: not susceptible to phosphorylation; also recorded: not phosphorylated

## S2−WT: wild-type rat type-1 InsP3 receptor, peripheral short S2− splice variant (SEQ ID NO: 17)
S2− InsP3R-1 [1]; 100 nM, 500 nM or 1 μM forskolin
  effect on subsequent CCh-induced Ca^2+ release: failed to enhance
S2− InsP3R-1 [1]; 5 μM forskolin (threshold concentration)
  fold potentiation of Ca^2+ release: 1.26±0.21 fold
S2− InsP3R-1 [1]; 20 μM forskolin, Fura-2, listed as wild-type S2^− InsP3R-1
  fold increase in CCh-induced Ca^2+ release in the presence of forskolin: ~3 fold and ~4 fold
S2− InsP3R-1 [1]; 20 μM forskolin
  effect of forskolin treatment on CCh-induced [Ca^2+]i peak: dramatic potentiation; also recorded: markedly potentiated
S2− InsP3R-1 [1]; 20 μM forskolin, listed as S2^− InsP3R-1
  effect of forskolin treatment on CCh-induced [Ca^2+]i peak: potentiated Ca^2+ release
S2− InsP3R-1 [1]; 20 μM forskolin, listed as wild type S2^− InsP3R-1
  effect of forskolin treatment on CCh-induced [Ca^2+]i peak: enhanced CCh stimulated Ca^2+ release
S2− InsP3R-1 [1]; 20 μM forskolin, listed as wild-type S2^− InsP3R-1
  effect of forskolin treatment on CCh-induced [Ca^2+]i peak: marked potentiation
S2− InsP3R-1 [1]
  Ca^2+ release after PKA activation: Enhanced
S2− InsP3R-1 [2]; listed as S2−InsP3R-1
  phosphorylation of Ser-1755 after forskolin: results in phosphorylation
S2− InsP3R-1 [2]; listed as wild type S2^−InsP3R-1
  phosphorylation of Ser-1755 after forskolin: robustly phosphorylated

## S2−ES: phosphomimetic short splice variant S1589E
S2− InsP3R-1 [1]; 20 μM forskolin
  effect of forskolin treatment on CCh-induced [Ca^2+]i peak: no potentiation
S2− InsP3R-1 [1]
  Ca^2+ release after PKA activation: No change/NT
S2− InsP3R-1 [2]
  phosphorylation of Ser-1755 after forskolin: no phosphorylation; also recorded: lack of phosphorylation

## S2−SE: phosphomimetic short splice variant of S1755E
S2− InsP3R-1 [1]; 20 μM forskolin
  effect of forskolin treatment on CCh-induced [Ca^2+]i peak: no potentiation
S2− InsP3R-1 [1]
  Ca^2+ release after PKA activation: No change/NT
S2− InsP3R-1 [2]
  phosphorylation of Ser-1755 after forskolin: no phosphorylation

## S2−EE: phosphomimetic S1589E/S1755E mutant of the short splice variant
S2− InsP3R-1 [1]; 20 μM forskolin
  effect of forskolin treatment on CCh-induced [Ca^2+]i peak: no potentiation
S2− InsP3R-1 [1]
  Ca^2+ release after PKA activation: No change/NT
S2− InsP3R-1 [2]
  phosphorylation of Ser-1755 after forskolin: no phosphorylation
